Experimental data reported in PMC6651548, “Synthesis and AChE Inhibitory Activity of Novel Thiazolylhydrazone Derivatives” (Molecules, 2019).

Key:
[1] = target: T1, AChE (Homo sapiens, UniProt P22303); experiment: Enzyme kinetic studies of AChE inhibition (Lineweaver-Burk plots); type: biochemical
Method: . The type of inhibition was estimated by means of linear Lineweaver-Burk […], and the substrate speed curves in the presence and absence of 3a, 3c and 3i of the strongest compounds were verified in the enzyme kinetics analysis. […] In the initial velocity measurements, different substrate concentrations, ranging from 600 µM to 18.75 µM, were used for the AChE enzyme. The secondary plots of the Km/Vmax (slope) versus changing concentrations were used to determine Ki (intercept on the x-axis) values of compounds [30]. […] Reversible inhibition comprises of the ensuing subtypes: competitive, uncompetitive, noncompetitive or mixed-type. Such inhibitions can be determined using Lineweaver–Burk plots. […] Based on the gained plot, a mixed type of inhibition by compound 3c was established. That is, the compound can bind to the enzyme–substrate complex or to the free enzyme. It also means that the compound is a reversible inhibitor; reversible compounds can be bound to the enzyme by non-covalent interactions such as ionic bonds, hydrophobic interactions and hydrogen bonds deprived of any chemical bonding or reaction with the enzyme. These interactions take place quickly and can be easily reversed. For that reason, the enzyme–inhibitor complex is rapidly degraded immediately before irreversible inhibition. […]

[2] = target: T2, hMAO-B (Homo sapiens, UniProt P27338); experiment: biochemical
T2 construct: purchased Sigma-Aldrich (Steinheim, Germany)
T2 sequence (P27338 1-520): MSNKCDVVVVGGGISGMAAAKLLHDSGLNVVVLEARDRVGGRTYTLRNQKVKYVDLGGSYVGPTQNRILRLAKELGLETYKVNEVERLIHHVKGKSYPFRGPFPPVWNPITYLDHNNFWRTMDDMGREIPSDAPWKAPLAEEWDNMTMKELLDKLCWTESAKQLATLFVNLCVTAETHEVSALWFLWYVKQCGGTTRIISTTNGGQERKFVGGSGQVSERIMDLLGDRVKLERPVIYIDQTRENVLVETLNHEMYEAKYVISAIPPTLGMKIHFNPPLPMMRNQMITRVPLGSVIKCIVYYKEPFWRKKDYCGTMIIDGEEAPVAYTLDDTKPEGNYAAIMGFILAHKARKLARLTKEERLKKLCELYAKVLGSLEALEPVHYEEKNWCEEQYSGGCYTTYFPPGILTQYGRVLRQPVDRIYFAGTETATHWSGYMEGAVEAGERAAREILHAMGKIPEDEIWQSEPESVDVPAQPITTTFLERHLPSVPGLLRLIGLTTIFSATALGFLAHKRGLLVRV
Method: Test compounds and standard drugs were used in the same concentrations as in AChE and BChE enzyme activity assays. […] To investigate the MAO-A and MAO-B enzyme inhibition profiles of the synthesized compounds, the fluorometric enzyme inhibition assay was carried out, as previously defined by us. Ampliflu™ Red (10-Acetyl-3,7-dihydroxyphenoxazine) was used as a fluorescence reagent in this assay.

[3] = target: T1, AChE; experiment: biochemical
[4] = target: T3, hMAO-A (Homo sapiens, UniProt P21397); experiment: Monoamine oxidase fluorometric inhibition assay, MAO-A; type: biochemical
T3 construct: purchased Sigma-Aldrich (Steinheim, Germany)
T3 sequence (P21397 1-527): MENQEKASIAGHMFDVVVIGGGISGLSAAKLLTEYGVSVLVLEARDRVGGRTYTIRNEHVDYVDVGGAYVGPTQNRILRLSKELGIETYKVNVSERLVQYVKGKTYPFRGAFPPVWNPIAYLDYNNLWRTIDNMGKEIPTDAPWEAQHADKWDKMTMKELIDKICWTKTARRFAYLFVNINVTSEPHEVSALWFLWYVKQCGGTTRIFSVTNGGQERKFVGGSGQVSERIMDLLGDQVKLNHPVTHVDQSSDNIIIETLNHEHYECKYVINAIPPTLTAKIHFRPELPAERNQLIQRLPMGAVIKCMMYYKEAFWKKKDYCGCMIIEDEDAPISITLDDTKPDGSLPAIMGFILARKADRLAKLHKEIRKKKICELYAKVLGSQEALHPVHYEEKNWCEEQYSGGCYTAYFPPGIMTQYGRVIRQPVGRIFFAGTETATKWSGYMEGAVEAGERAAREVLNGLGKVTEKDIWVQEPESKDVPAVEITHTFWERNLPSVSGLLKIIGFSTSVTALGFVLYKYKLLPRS
Method: In order to investigate the monoamine oxidase enzyme inhibitory effects of synthesized compounds, MAO-A and MAO-B enzyme activities were performed by using a fluorometric inhibition method. Moclobemide and selegiline were used as standard drugs for MAO-A and MAO-B enzymes, respectively. Test compounds and standard drugs were used in the same concentrations as in AChE and BChE enzyme activity assays. In Table 2, MAO enzyme inhibitory results are given. […]. To investigate the MAO-A and MAO-B enzyme inhibition profiles of the synthesized compounds, the fluorometric enzyme inhibition assay was carried out, as previously defined by us. Ampliflu™ Red (10-Acetyl-3,7-dihydroxyphenoxazine) was used as a fluorescence reagent in this assay.

[5] = target: BChE (Homo sapiens, UniProt P06276); experiment: Anticholinesterase activity assay (modified Ellman method), BChE; type: biochemical
Method: . Initially, all the obtained compounds were tested at 10^−3 M and 10^−4 M concentrations and the ChE inhibitory results are outlined in Table 1. […]. Compounds 3a, 3c and 3i indicated more than 50% activity at the 10^−4 M concentration. […]. […] According to the results of activity tests, some general results can be listed as follows. The compounds 3a, 3c and 3i contain the non-substituted, methoxy and trifluoromethyl substituents on the phenyl ring, respectively. […]
The inhibitory capacity of the obtained compounds on AChE and BChE biological activities was assessed using a modified Ellman’s spectrometric method, as described in our previous studies. Donepezil were used as a reference drug. All pipetting procedures in the enzyme inhibition assay were carried out via a robotics system, Biotek Precision XS (Winooski, VT, USA). A BioTek-Synergy H1 microplate reader (Winooski, VT, USA) was used to carry out measurements of percent inhibition at 412 nm, and the IC50 values of the selected compounds were performed as previously described.

T1 sequence (P22303 32-614): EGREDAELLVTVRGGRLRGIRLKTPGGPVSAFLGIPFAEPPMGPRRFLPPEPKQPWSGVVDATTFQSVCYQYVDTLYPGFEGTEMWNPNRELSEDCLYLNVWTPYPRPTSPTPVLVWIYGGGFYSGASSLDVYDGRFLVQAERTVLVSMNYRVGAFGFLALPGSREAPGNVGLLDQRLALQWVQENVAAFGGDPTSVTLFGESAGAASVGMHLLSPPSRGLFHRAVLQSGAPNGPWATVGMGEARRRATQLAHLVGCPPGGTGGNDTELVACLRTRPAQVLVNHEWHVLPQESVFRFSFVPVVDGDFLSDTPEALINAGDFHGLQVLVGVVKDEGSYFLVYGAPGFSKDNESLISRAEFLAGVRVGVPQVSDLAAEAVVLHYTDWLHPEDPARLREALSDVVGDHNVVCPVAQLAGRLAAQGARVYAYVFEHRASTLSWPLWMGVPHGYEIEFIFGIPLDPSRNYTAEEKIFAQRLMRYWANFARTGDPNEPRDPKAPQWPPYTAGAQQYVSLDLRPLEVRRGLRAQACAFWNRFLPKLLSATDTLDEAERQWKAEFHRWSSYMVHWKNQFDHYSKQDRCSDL
BChE, sequence (P06276 29-602): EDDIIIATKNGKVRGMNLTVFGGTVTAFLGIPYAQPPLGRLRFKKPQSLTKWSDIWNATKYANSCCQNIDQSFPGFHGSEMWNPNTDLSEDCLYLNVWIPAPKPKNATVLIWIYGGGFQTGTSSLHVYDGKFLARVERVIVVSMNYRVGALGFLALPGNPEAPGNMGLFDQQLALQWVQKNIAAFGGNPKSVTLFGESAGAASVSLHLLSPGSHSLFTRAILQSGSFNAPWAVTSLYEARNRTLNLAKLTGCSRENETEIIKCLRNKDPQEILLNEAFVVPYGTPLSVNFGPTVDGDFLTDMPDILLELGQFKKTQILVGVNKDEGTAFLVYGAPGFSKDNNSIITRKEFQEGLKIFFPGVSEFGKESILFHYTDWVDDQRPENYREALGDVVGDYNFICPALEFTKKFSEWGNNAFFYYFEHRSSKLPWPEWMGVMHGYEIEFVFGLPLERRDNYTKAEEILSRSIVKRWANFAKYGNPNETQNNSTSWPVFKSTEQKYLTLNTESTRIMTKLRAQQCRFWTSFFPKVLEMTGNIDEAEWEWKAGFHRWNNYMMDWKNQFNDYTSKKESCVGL

COc1ccc(-c2csc(NN=Cc3ccc(N4CCN(c5ccc(F)cc5)CC4)cc3)n2)cc1 [Compound 3c, 2-(2-(4-(4-(4-fluorophenyl)piperazin-1-yl)benzylidene)hydrazineyl)-4-(4-methoxyphenyl)thiazole]
type of inhibition ([1]; Lineweaver–Burk plots, 2 × IC50, IC50 and IC50/2, substrate 600 µM to 18.75 µM): mixed type | Ki ([1]; secondary plot of Km/Vmax (slope) versus inhibitor concentration, read-out: steady-state inhibition constant (Ki)): 19.7 nM | inhibition at 1000 µM ([2]; 10^−3 M, read-out: MAO-B % Inhibition): 85.1 ± 1% | inhibition at 100 µM ([2]; 10^−4 M, read-out: MAO-B % Inhibition): 70.3 ± 0.85% | IC50 ([2]; read-out: MAO-B IC50): 1020 ± 42 nM | inhibition at 1000 µM ([3]; 10^−3 M): 88.5 ± 1.1% | IC50 ([3]; 10^−3–10^−9 M concentrations): 31.7 ± 1 nM | inhibition at 1000 µM ([4]; 10^−3 M): 38.6 ± 0.58% | inhibition at 100 µM ([4]; 10^−4 M): 21.8 ± 0.55% | inhibition at 1000 µM ([5]; 10^−3 M): 28 ± 0.43% | inhibition at 100 µM ([5]; 10^−4 M): 21.6 ± 0.65%
